Experiments:
Assay in all cases: relative viability (nuclei count vs DMSO), 5 days (fraction); higher = more cells survive
BEN = tested on: BEN
Outline: (§1)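 Values are medians from duplicate plates. Each reflects relative viability, defined as the nuclei count of treated wells over that of vehicle wells. Lung cancer cell lines in 1536-well plates were pin-tool dosed one day after seeding with one drug alone or with a fixed anchor-drug dose plus five library-drug doses (not always all listed) in √10 steps, then fixed, stained and imaged at 4× after 5 days.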

EPLC-272H = tested on: EPLC-272H
Outline: as §1

HCC-827 = tested on: HCC-827
Outline: as §1

HOP-62 = tested on: HOP-62
Outline: as §1

LU99A = tested on: LU99A
Outline: as §1

NCI-H1355 = tested on: NCI-H1355
Outline: as §1

NCI-H1666 = tested on: NCI-H1666
Outline: as §1

NCI-H1792 = tested on: NCI-H1792
Outline: as §1

NCI-H1975 = tested on: NCI-H1975
Outline: as §1

NCI-H2170 = tested on: NCI-H2170
Outline: as §1

NCI-H23 = tested on: NCI-H23
Outline: as §1

NCI-H2405 = tested on: NCI-H2405
Outline: as §1

NCI-H3122 = tested on: NCI-H3122
Outline: as §1

NCI-H322M = tested on: NCI-H322M
Outline: as §1

NCI-H520 = tested on: NCI-H520
Outline: as §1

NCI-H596 = tested on: NCI-H596
Outline: as §1

NCI-H647 = tested on: NCI-H647
Outline: as §1

NCI-H727 = tested on: NCI-H727
Outline: as §1

NCI-H838 = tested on: NCI-H838
Outline: as §1

PC-14 = tested on: PC-14
Outline: as §1

UMC-11 = tested on: UMC-11
Outline: as §1

For `CCCCCCCCCCCC1=C(O)C(=O)C=C(O)C1=O` [Embelin] + CC1(C)CCC(c2ccc(Cl)cc2)=C(CN2CCN(c3ccc(C(=O)NS(=O)(=O)c4ccc(N[C@H](CCN5CCOCC5)CSc5ccccc5)c(S(=O)(=O)C(F)(F)F)c4)cc3)CC2)C1 [Navitoclax] (partner 0.5 µM), which relative viability (BEN; first compound 0.08 µM) is on record?
Its relative viability is 0.0728.

What about the relative viability (BEN; first compound 0.8 µM) of the same compound?
Its relative viability is 0.0709.

And the relative viability (BEN; first compound 2.53 µM)?
The relative viability was 0.0714.

And the relative viability (BEN; first compound 8 µM)?
Its relative viability is 0.0735.

What about the relative viability (EPLC-272H; first compound 0.08 µM) of the same compound?
Its relative viability is 1.07.

And the relative viability (EPLC-272H; first compound 0.8 µM)?
Its relative viability is 1.34.

What about the relative viability (EPLC-272H; first compound 2.53 µM) of the same compound?
The relative viability was 1.21.

What about the relative viability (EPLC-272H; first compound 8 µM) of the same compound?
The relative viability was 1.11.

And the relative viability (HCC-827; first compound 0.08 µM)?
Its relative viability is 1.

What about the relative viability (HCC-827; first compound 0.8 µM) of the same compound?
The relative viability was 1.09.

What about the relative viability (HCC-827; first compound 2.53 µM) of the same compound?
Its relative viability is 1.03.

What about the relative viability (HCC-827; first compound 8 µM) of the same compound?
Its relative viability is 1.04.

What about the relative viability (HOP-62; first compound 0.08 µM) of the same compound?
Its relative viability is 0.882.

What about the relative viability (HOP-62; first compound 0.8 µM) of the same compound?
Its relative viability is 1.16.

And the relative viability (HOP-62; first compound 2.53 µM)?
The relative viability was 1.09.

And the relative viability (HOP-62; first compound 8 µM)?
Its relative viability is 1.22.

What about the relative viability (LU99A; first compound 0.08 µM) of the same compound?
The relative viability was 0.993.

What about the relative viability (LU99A; first compound 0.8 µM) of the same compound?
The relative viability was 0.943.

And the relative viability (LU99A; first compound 2.53 µM)?
Its relative viability is 0.864.

And the relative viability (LU99A; first compound 8 µM)?
The relative viability was 0.755.

And the relative viability (NCI-H1355; first compound 0.08 µM)?
Its relative viability is 1.04.

What about the relative viability (NCI-H1355; first compound 0.8 µM) of the same compound?
Its relative viability is 1.05.

What about the relative viability (NCI-H1355; first compound 2.53 µM) of the same compound?
The relative viability was 1.06.

What about the relative viability (NCI-H1355; first compound 8 µM) of the same compound?
The relative viability was 0.884.

And the relative viability (NCI-H1666; first compound 0.08 µM)?
Its relative viability is 1.21.

What about the relative viability (NCI-H1666; first compound 0.8 µM) of the same compound?
The relative viability was 1.22.

And the relative viability (NCI-H1666; first compound 2.53 µM)?
The relative viability was 0.995.

What about the relative viability (NCI-H1666; first compound 8 µM) of the same compound?
Its relative viability is 0.999.

What about the relative viability (NCI-H1792; first compound 0.08 µM) of the same compound?
The relative viability was 0.593.

What about the relative viability (NCI-H1792; first compound 0.8 µM) of the same compound?
Its relative viability is 0.649.

And the relative viability (NCI-H1792; first compound 2.53 µM)?
The relative viability was 0.892.

And the relative viability (NCI-H1792; first compound 8 µM)?
The relative viability was 0.669.

And the relative viability (NCI-H1975; first compound 0.08 µM)?
Its relative viability is 1.13.

And the relative viability (NCI-H1975; first compound 0.8 µM)?
The relative viability was 1.29.

What about the relative viability (NCI-H1975; first compound 2.53 µM) of the same compound?
The relative viability was 1.13.

What about the relative viability (NCI-H1975; first compound 8 µM) of the same compound?
The relative viability was 1.11.

And the relative viability (NCI-H2170; first compound 0.08 µM)?
The relative viability was 0.641.

And the relative viability (NCI-H2170; first compound 0.8 µM)?
The relative viability was 0.678.

What about the relative viability (NCI-H2170; first compound 2.53 µM) of the same compound?
Its relative viability is 0.698.

And the relative viability (NCI-H2170; first compound 8 µM)?
The relative viability was 0.547.

And the relative viability (NCI-H23; first compound 0.08 µM)?
Its relative viability is 0.848.

What about the relative viability (NCI-H23; first compound 0.8 µM) of the same compound?
Its relative viability is 0.904.

And the relative viability (NCI-H23; first compound 2.53 µM)?
Its relative viability is 0.884.

What about the relative viability (NCI-H23; first compound 8 µM) of the same compound?
Its relative viability is 0.74.

What about the relative viability (NCI-H2405; first compound 0.08 µM) of the same compound?
The relative viability was 0.986.

What about the relative viability (NCI-H2405; first compound 0.8 µM) of the same compound?
Its relative viability is 1.41.

And the relative viability (NCI-H2405; first compound 2.53 µM)?
The relative viability was 0.875.

And the relative viability (NCI-H2405; first compound 8 µM)?
Its relative viability is 0.906.

What about the relative viability (NCI-H3122; first compound 0.08 µM) of the same compound?
Its relative viability is 1.05.

What about the relative viability (NCI-H3122; first compound 0.8 µM) of the same compound?
The relative viability was 1.01.

What about the relative viability (NCI-H3122; first compound 2.53 µM) of the same compound?
The relative viability was 0.985.

What about the relative viability (NCI-H3122; first compound 8 µM) of the same compound?
Its relative viability is 1.02.

And the relative viability (NCI-H322M; first compound 0.08 µM)?
The relative viability was 1.1.

And the relative viability (NCI-H322M; first compound 0.8 µM)?
Its relative viability is 1.37.

What about the relative viability (NCI-H322M; first compound 2.53 µM) of the same compound?
Its relative viability is 1.48.

And the relative viability (NCI-H322M; first compound 8 µM)?
The relative viability was 1.12.

What about the relative viability (NCI-H520; first compound 0.08 µM) of the same compound?
The relative viability was 1.24.

What about the relative viability (NCI-H520; first compound 0.8 µM) of the same compound?
The relative viability was 1.26.

And the relative viability (NCI-H520; first compound 2.53 µM)?
Its relative viability is 1.07.

What about the relative viability (NCI-H520; first compound 8 µM) of the same compound?
Its relative viability is 1.04.

What about the relative viability (NCI-H596; first compound 0.08 µM) of the same compound?
The relative viability was 0.934.

What about the relative viability (NCI-H596; first compound 0.8 µM) of the same compound?
Its relative viability is 1.06.

And the relative viability (NCI-H596; first compound 2.53 µM)?
Its relative viability is 1.12.

What about the relative viability (NCI-H596; first compound 8 µM) of the same compound?
Its relative viability is 0.908.

And the relative viability (NCI-H647; first compound 0.08 µM)?
The relative viability was 1.25.

What about the relative viability (NCI-H647; first compound 0.8 µM) of the same compound?
Its relative viability is 1.35.

And the relative viability (NCI-H647; first compound 2.53 µM)?
The relative viability was 1.21.

And the relative viability (NCI-H647; first compound 8 µM)?
The relative viability was 1.2.

What about the relative viability (NCI-H727; first compound 0.08 µM) of the same compound?
The relative viability was 0.4.

And the relative viability (NCI-H727; first compound 0.8 µM)?
The relative viability was 0.537.

What about the relative viability (NCI-H727; first compound 2.53 µM) of the same compound?
The relative viability was 0.435.

And the relative viability (NCI-H727; first compound 8 µM)?
Its relative viability is 0.392.

And the relative viability (NCI-H838; first compound 0.08 µM)?
Its relative viability is 1.19.

And the relative viability (NCI-H838; first compound 0.8 µM)?
The relative viability was 1.25.

And the relative viability (NCI-H838; first compound 2.53 µM)?
Its relative viability is 1.2.

And the relative viability (NCI-H838; first compound 8 µM)?
The relative viability was 1.18.

And the relative viability (PC-14; first compound 0.08 µM)?
The relative viability was 0.968.

What about the relative viability (PC-14; first compound 0.8 µM) of the same compound?
The relative viability was 1.05.

And the relative viability (PC-14; first compound 2.53 µM)?
Its relative viability is 0.997.

And the relative viability (PC-14; first compound 8 µM)?
Its relative viability is 1.06.

And the relative viability (UMC-11; first compound 0.08 µM)?
Its relative viability is 0.328.

What about the relative viability (UMC-11; first compound 0.8 µM) of the same compound?
Its relative viability is 0.32.

And the relative viability (UMC-11; first compound 2.53 µM)?
Its relative viability is 0.319.

What about the relative viability (UMC-11; first compound 8 µM) of the same compound?
The relative viability was 0.289.
